Assay results taken from the supplement of paper PMC10307832.

Legend:
Assay in all cases: relative viability (nuclei count vs DMSO), 5 days (fraction); higher = more cells survive
RERF-LC-KJ = tested on: RERF-LC-KJ
Summary of the method: (§1)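 Relative viability is defined as nuclei in treated wells over nuclei in vehicle wells. Duplicate plates were run and medians reported. Lung cancer cell lines in 1536-well plates were dosed by pin tool one day after seeding, with one drug or with a fixed anchor-drug dose plus five library-drug doses (not always all listed) in √10 steps, and nuclei were counted after 5 days.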

H3255 = tested on: H3255
Summary of the method: as §1

HCC-827 = tested on: HCC-827
Summary of the method: as §1

NCI-H2228 = tested on: NCI-H2228
Summary of the method: as §1

EKVX = tested on: EKVX
Summary of the method: as §1

NCI-H2405 = tested on: NCI-H2405
Summary of the method: as §1

HCC-15 = tested on: HCC-15
Summary of the method: as §1

NCI-H1734 = tested on: NCI-H1734
Summary of the method: as §1

NCI-H1975 = tested on: NCI-H1975
Summary of the method: as §1

NCI-H1755 = tested on: NCI-H1755
Summary of the method: as §1

PC-14 = tested on: PC-14
Summary of the method: as §1

NCI-H661 = tested on: NCI-H661
Summary of the method: as §1

NCI-H1355 = tested on: NCI-H1355
Summary of the method: as §1

CAL-12T = tested on: CAL-12T
Summary of the method: as §1

NCI-H322M = tested on: NCI-H322M
Summary of the method: as §1

NCI-H1650 = tested on: NCI-H1650
Summary of the method: as §1

LCLC-97TM1 = tested on: LCLC-97TM1
Summary of the method: as §1

NCI-H520 = tested on: NCI-H520
Summary of the method: as §1

LK-2 = tested on: LK-2
Summary of the method: as §1

PC-3 [JPC-3] = tested on: PC-3 [JPC-3]
Summary of the method: as §1

NCI-H1563 = tested on: NCI-H1563
Summary of the method: as §1

O=c1cc(N2CCOCC2)oc2c(-c3cccc4c3sc3ccccc34)cccc12 + CS(=O)(=O)N1CCN(Cc2cc3nc(-c4cccc5[nH]ncc45)nc(N4CCOCC4)c3s2)CC1 [Pictilisib] (partner 1 µM)
relative viability (RERF-LC-KJ; first compound 0.01 µM): 0.509
relative viability (RERF-LC-KJ; first compound 0.03162 µM): 0.507
relative viability (RERF-LC-KJ; first compound 0.1 µM): 0.595
relative viability (RERF-LC-KJ; first compound 0.3162 µM): 0.664
relative viability (RERF-LC-KJ; first compound 1 µM): 0.514
relative viability (H3255; first compound 0.01 µM): 0.5
relative viability (H3255; first compound 0.03162 µM): 0.513
relative viability (H3255; first compound 0.1 µM): 0.48
relative viability (H3255; first compound 0.3162 µM): 0.45
relative viability (H3255; first compound 1 µM): 0.416
relative viability (HCC-827; first compound 0.01 µM): 1.04
relative viability (HCC-827; first compound 0.03162 µM): 0.809
relative viability (HCC-827; first compound 0.1 µM): 1.05
relative viability (HCC-827; first compound 0.3162 µM): 1.01
relative viability (HCC-827; first compound 1 µM): 0.997
relative viability (NCI-H2228; first compound 0.03162 µM): 0.351
relative viability (NCI-H2228; first compound 0.1 µM): 0.668
relative viability (NCI-H2228; first compound 0.3162 µM): 0.39
relative viability (NCI-H2228; first compound 1 µM): 0.512
relative viability (EKVX; first compound 0.01 µM): 0.418
relative viability (EKVX; first compound 0.03162 µM): 0.496
relative viability (EKVX; first compound 0.1 µM): 0.507
relative viability (EKVX; first compound 0.3162 µM): 0.439
relative viability (EKVX; first compound 1 µM): 0.431
relative viability (NCI-H2405; first compound 0.01 µM): 0.397
relative viability (NCI-H2405; first compound 0.03162 µM): 0.513
relative viability (NCI-H2405; first compound 0.1 µM): 0.443
relative viability (NCI-H2405; first compound 0.3162 µM): 0.533
relative viability (NCI-H2405; first compound 1 µM): 0.443
relative viability (HCC-15; first compound 0.01 µM): 0.66
relative viability (HCC-15; first compound 0.03162 µM): 0.74
relative viability (HCC-15; first compound 0.1 µM): 0.939
relative viability (HCC-15; first compound 0.3162 µM): 0.774
relative viability (HCC-15; first compound 1 µM): 0.714
relative viability (NCI-H1734; first compound 0.01 µM): 0.445
relative viability (NCI-H1734; first compound 0.03162 µM): 0.472
relative viability (NCI-H1734; first compound 0.1 µM): 0.452
relative viability (NCI-H1734; first compound 0.3162 µM): 0.504
relative viability (NCI-H1734; first compound 1 µM): 0.446
relative viability (NCI-H1975; first compound 0.01 µM): 0.272
relative viability (NCI-H1975; first compound 0.03162 µM): 0.307
relative viability (NCI-H1975; first compound 0.1 µM): 0.287
relative viability (NCI-H1975; first compound 0.3162 µM): 0.305
relative viability (NCI-H1975; first compound 1 µM): 0.28
relative viability (NCI-H1755; first compound 0.01 µM): 0.288
relative viability (NCI-H1755; first compound 0.03162 µM): 0.402
relative viability (NCI-H1755; first compound 0.1 µM): 0.457
relative viability (NCI-H1755; first compound 0.3162 µM): 0.458
relative viability (NCI-H1755; first compound 1 µM): 0.395
relative viability (PC-14; first compound 0.01 µM): 0.555
relative viability (PC-14; first compound 0.03162 µM): 0.612
relative viability (PC-14; first compound 0.1 µM): 0.553
relative viability (PC-14; first compound 0.3162 µM): 0.638
relative viability (PC-14; first compound 1 µM): 0.589
relative viability (NCI-H661; first compound 0.01 µM): 0.362
relative viability (NCI-H661; first compound 0.03162 µM): 0.352
relative viability (NCI-H661; first compound 0.1 µM): 0.376
relative viability (NCI-H661; first compound 0.3162 µM): 0.409
relative viability (NCI-H661; first compound 1 µM): 0.331
relative viability (NCI-H1355; first compound 0.01 µM): 0.486
relative viability (NCI-H1355; first compound 0.03162 µM): 0.502
relative viability (NCI-H1355; first compound 0.3162 µM): 0.429
relative viability (NCI-H1355; first compound 1 µM): 0.419
relative viability (CAL-12T; first compound 0.01 µM): 0.368
relative viability (CAL-12T; first compound 0.1 µM): 0.485
relative viability (CAL-12T; first compound 0.3162 µM): 0.551
relative viability (CAL-12T; first compound 1 µM): 0.326
relative viability (NCI-H322M; first compound 0.01 µM): 0.578
relative viability (NCI-H322M; first compound 0.03162 µM): 0.525
relative viability (NCI-H322M; first compound 0.3162 µM): 0.471
relative viability (NCI-H322M; first compound 1 µM): 0.507
relative viability (NCI-H1650; first compound 0.03162 µM): 0.549
relative viability (NCI-H1650; first compound 0.1 µM): 0.56
relative viability (NCI-H1650; first compound 0.3162 µM): 0.504
relative viability (NCI-H1650; first compound 1 µM): 0.514
relative viability (LCLC-97TM1; first compound 0.01 µM): 0.177
relative viability (LCLC-97TM1; first compound 0.03162 µM): 0.271
relative viability (LCLC-97TM1; first compound 0.3162 µM): 0.233
relative viability (LCLC-97TM1; first compound 1 µM): 0.145
relative viability (NCI-H520; first compound 0.01 µM): 0.304
relative viability (NCI-H520; first compound 0.03162 µM): 0.321
relative viability (NCI-H520; first compound 0.1 µM): 0.282
relative viability (NCI-H520; first compound 0.3162 µM): 0.305
relative viability (NCI-H520; first compound 1 µM): 0.312
relative viability (LK-2; first compound 0.01 µM): 0.676
relative viability (LK-2; first compound 0.03162 µM): 0.562
relative viability (LK-2; first compound 0.1 µM): 0.615
relative viability (LK-2; first compound 0.3162 µM): 0.578
relative viability (LK-2; first compound 1 µM): 0.64
relative viability (PC-3 [JPC-3]; first compound 0.01 µM): 0.751
relative viability (PC-3 [JPC-3]; first compound 0.03162 µM): 0.747
relative viability (PC-3 [JPC-3]; first compound 0.1 µM): 0.711
relative viability (PC-3 [JPC-3]; first compound 0.3162 µM): 0.727
relative viability (PC-3 [JPC-3]; first compound 1 µM): 0.739
relative viability (NCI-H1563; first compound 0.01 µM): 0.626
relative viability (NCI-H1563; first compound 0.03162 µM): 0.634
relative viability (NCI-H1563; first compound 0.1 µM): 0.659
relative viability (NCI-H1563; first compound 0.3162 µM): 0.57
relative viability (NCI-H1563; first compound 1 µM): 0.559
